Twelve compounds from patent publication US20200115357A1, “LIVER X RECEPTORS (LXR) MODULATORS” (Phenex-FXR GmbH, priority 2017, published 2020) can be followed below.

Test [1] addresses T1, GST-LXRβ ligand-binding domain (Homo sapiens, UniProt P55055, DUP175-175).
T1 construct: amino acids 156-461; NP009052; made in house; host or cells: E. coli
T1 sequence (P55055 with tags, fused parts or gaps DUP175-175): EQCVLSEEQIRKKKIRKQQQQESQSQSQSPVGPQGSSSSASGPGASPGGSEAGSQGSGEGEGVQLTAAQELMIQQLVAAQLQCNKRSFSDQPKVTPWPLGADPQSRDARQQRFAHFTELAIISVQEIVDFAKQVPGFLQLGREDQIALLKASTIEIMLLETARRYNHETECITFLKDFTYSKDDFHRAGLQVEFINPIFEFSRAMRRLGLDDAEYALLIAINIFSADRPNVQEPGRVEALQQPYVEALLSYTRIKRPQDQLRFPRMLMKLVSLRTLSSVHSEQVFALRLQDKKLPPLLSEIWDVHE
The experiment in a line: TR-FRETβ activity assay (LXRβ-LBD / NCoA3 coactivator peptide, prestimulated with 24(S)-25-epoxycholesterol). The test is classed as biochemical. The arrangement: key to behavior in FRET assay: ag=agonist; ia=inverse agonist. The conditions noted are these: for EC50: read-out: FRETβ activity range (EC50); for behavior in FRET assay: agonist or inverse agonist. The method, then: The tested compounds were usually dissolved, tested and stored as 20 mM stock solutions in DMSO. […] Sulfonyl acetic acid derivatives are shelf stable as solid at rt for long time as reported by Griesbrecht et al. (Synlett 2010:374) or Faucher et al. (J. Med. Chem. 2004; 47:18). TR-FRETβ Activity Assay Recombinant GST-LXRβ ligand-binding domain (LBD; amino acids 156-461; NP009052; SEQ ID NO:2) was expressed in E. coli and purified via gluthatione-sepharose affinity chromatography. N-terminally biotinylated NCoA3 coactivator peptide (SEQ ID NO:1) was chemically synthesized (Eurogentec). […] Finally, a detection mix was added containing anti GST-Tb cryptate (CisBio; 610SAXLB) and Streptavidin-XL665 (CisBio; 610SAXLB) as fluorescent donor and acceptor, respectively, as well as the coactivator peptide and LXRβ-LBD protein (SEQ ID NO:2). The reaction was mixed thoroughly, equilibrated for 1 h at 4° C. and vicinity of LXRβ and coactivator peptide was detected by measurement of fluorescence in a VictorX4 multiplate reader (PerkinElmer Life Science) using 340 nm as excitation and 615 and 665 nm as emission wavelengths. Assays were performed in triplicates. Final Assay Concentrations of Components: 240 mM KCl, 1 μg/μL BSA, 0.002% Triton-X-100, […] anti GST-Tb cryptate, 2.5 ng/μL Streptavidin-XL665, coactivator peptide (400 nM), LXRβ protein ([…], i.e. 76 nM)

The target of another test is T2, LXRα full length (FL) (Homo sapiens, UniProt Q13133).
T2 construct: the full length (FL) proteins of LXRα (amino acids 1-447); NP005684; expressed in transfected cells; host or cells: HEK293
T2 sequence (Q13133 1-447): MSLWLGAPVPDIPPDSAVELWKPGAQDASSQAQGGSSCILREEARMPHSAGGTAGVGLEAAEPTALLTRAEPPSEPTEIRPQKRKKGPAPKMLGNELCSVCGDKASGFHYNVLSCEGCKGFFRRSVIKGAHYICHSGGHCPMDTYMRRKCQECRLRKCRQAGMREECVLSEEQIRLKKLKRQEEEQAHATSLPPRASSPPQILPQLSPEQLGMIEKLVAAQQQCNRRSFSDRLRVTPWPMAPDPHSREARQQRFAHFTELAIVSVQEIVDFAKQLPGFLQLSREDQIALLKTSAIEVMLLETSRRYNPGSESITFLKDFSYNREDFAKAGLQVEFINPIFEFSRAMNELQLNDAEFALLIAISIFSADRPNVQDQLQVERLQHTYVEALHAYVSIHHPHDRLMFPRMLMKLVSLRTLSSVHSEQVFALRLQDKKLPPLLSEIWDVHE
In words: LXR Gal4 reporter transient transfection assay (M2H), Gal4α FL. The format is cell-based. The conditions noted are these: HEK293 cells; for EC50: read-out: M2H Gal4α FL activity range (EC50). The method, then:
(§1) The tested compounds were usually dissolved, tested and stored as 20 mM stock solutions in DMSO. Since sulfonyl acetic acid derivatives tend to decarboxylate under these conditions, these stock solutions were prepared, tested and stored as 20 mM DMSO stock solutions containing 100 mM trifluoroacetic acid (5 equivalents). Sulfonyl acetic acid derivatives are shelf stable as solid at rt for long time as reported by Griesbrecht et al. (Synlett 2010:374) or Faucher et al. (J. Med. Chem. 2004; 47:18).
(§2) LXR Gal4 Reporter Transient Transfection Assays
(§3) LXRα and LXRβ activity status was determined via detection of interaction with coactivator and corepressor proteins in mammalian two-hybrid experiments (M2H). For this, via transient transfection the full length (FL) proteins of LXRα (amino acids 1-447; NP005684; SEQ ID NO:7) or LXRβ-(amino acids 1-461; NP009052; SEQ ID NO:8) or the ligand-binding domains (LBD) of LXRα (amino acids 155-447 SEQ ID NO:3) or LXRβ (amino acids 156-461; SEQ ID NO:4) were expressed from pCMV-AD (Stratagene) as fusions to the transcriptional activation domain of NFkB. As cofactors, domains of either the steroid receptor coactivator 1 (SRC1; amino acids 552-887; SEQ ID NO:5) or of the corepressor NCoR (amino acids 1903-2312 SEQ ID NO:6) were expressed as fusions to the DNA binding domain of the yeast transcription factor GAL4 (from pCMV-BD; Stratagene). Interaction was monitored via activation of a coexpressed Firefly Luciferase Reporter gene under control of a promoter containing repetitive GAL4 response elements (vector pFRLuc; Stratagene). Transfection efficiency was controlled via cotransfection of constitutively active pRL-CMV Renilla reniformis luciferase reporter (Promega). HEK293 cells were grown in minimum essential medium (MEM) with 2 mM L-glutamine and Earle's balanced salt solution supplemented with 8.3% fetal bovine serum, 0.1 mM non-essential amino acids, 1 mM sodium pyruvate, at 37° C. in 5% CO2. 3.5×10^4 cells/well were plated in 96-well cell culture plates in growth medium supplemented with 8.3% fetal bovine serum for 16-20 h to ˜90% confluency. For transfection, medium was taken off and LXR and cofactor expressing plasmids as well as the reporter plasmids are added in 30 μL OPTIMEM/well including polyethylene-imine (PEI) as vehicle. Typical amounts of plasmids transfected/well: pCMV-AD-LXR (5 ng), pCMV-BD-cofactor (5 ng), pFR-Luc (100 ng), pRL-CMV (0.5 ng). Compound stocks were prepared in DMSO, prediluted in MEM to a total volume of 120 μL, and added 4 h after addition of the transfection mixture (final vehicle concentration not exceeding 0.2%). Cells were incubated for additional 16 h, lysed for 10 min in 1× Passive Lysis Buffer (Promega) and Firefly and Renilla luciferase activities were measured sequentially in the same cell extract using buffers containing D-luciferine and coelenterazine, respectively. Measurements of luminescence were done in a BMG-Iuminometer.

In a further test the target is T3, LXRβ full length (FL) (Homo sapiens, UniProt P55055, DUP175-175).
T3 construct: the full length (FL) proteins of LXRα (amino acids 1-447); NP005684; NP009052; expressed in transfected cells; host or cells: HEK293
T3 sequence (P55055 with tags, fused parts or gaps DUP175-175): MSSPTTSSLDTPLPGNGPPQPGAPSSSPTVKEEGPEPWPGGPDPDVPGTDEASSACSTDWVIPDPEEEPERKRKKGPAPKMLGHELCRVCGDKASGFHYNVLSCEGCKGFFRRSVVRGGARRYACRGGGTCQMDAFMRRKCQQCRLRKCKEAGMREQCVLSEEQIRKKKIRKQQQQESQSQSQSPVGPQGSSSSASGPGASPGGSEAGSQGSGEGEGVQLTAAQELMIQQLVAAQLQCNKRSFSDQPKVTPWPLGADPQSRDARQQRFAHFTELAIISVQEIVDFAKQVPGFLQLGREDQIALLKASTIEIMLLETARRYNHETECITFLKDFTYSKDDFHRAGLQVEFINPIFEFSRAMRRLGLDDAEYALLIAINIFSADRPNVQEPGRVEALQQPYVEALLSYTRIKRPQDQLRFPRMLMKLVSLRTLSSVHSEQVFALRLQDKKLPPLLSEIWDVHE
The experiment in a line: LXR Gal4 reporter transient transfection assay (M2H), Gal4β FL. The conditions noted are these: HEK293 cells; read-out: M2H Gal4β FL activity range (EC50). The test is classed as cell-based. The procedure: as §1, §2, §3

[2] abbreviates: 1 μM 24(S)-25-epoxycholesterol as prestimulating agonist.

Molecules are shown by their SMILES. Bounds are passed on as bounds.

The term EC50 denotes the concentration giving half of the maximal effect. On to `Cc1cc(C)c(S(=O)(=O)N(Cc2ccc(-c3cccc(S(=O)(=O)CC(=O)O)c3)cc2)Cc2ccccc2C(F)(F)F)c(C)c1` [11/12], for which the half-maximal effective concentration (EC50) in test [1] (setting [2]) is 100 to 1000 nM; at LXRα full length (FL) it was 100 to 1000 nM; on LXRβ full length (FL) it was less than 100 nM. In addition, in test [1], the “behavior in FRET assay” value is “ag”.

On to `Cc1ccc2ccccc2c1S(=O)(=O)N(Cc1ccc(C(F)(F)F)o1)C1COc2cc(-c3cccc(C(C)(C)C(=O)O)c3)ccc21` (centres unmarked) [10/14], for which the EC50 was 100 to 1000 nM in test [1] (setting [2]), less than 100 nM at LXRα full length (FL) and less than 100 nM on LXRβ full length (FL). In addition, in test [1], the “behavior in FRET assay” value is recorded as “ia”.

Turning to `Cc1cc(C)c(S(=O)(=O)N(Cc2ccc(-c3cccc(S(=O)(=O)CC(=O)O)c3)cc2)Cc2csc(C(F)(F)F)c2)c(C)c1` [11/10], the 50% effective concentration (EC50) (in test [1] (setting [2]); at LXRα full length (FL); on LXRβ full length (FL)) was 1000 to 10000 nM each time. The “behavior in FRET assay” value in test [1] was “ia”.

Regarding `Cc1cc(C)c(S(=O)(=O)N(Cc2ccc(-c3cccc(S(=O)(=O)CC(=O)O)c3)cc2)Cc2cccc(OC(F)F)c2)c(C)c1` [11/15], the EC50 was in the range of 1000 to 10000 nM in test [1] (setting [2]), 1000 to 10000 nM on LXRα full length (FL) and 100 to 1000 nM at LXRβ full length (FL). Besides, the “behavior in FRET assay” value in test [1] is listed as “ia”.

Take `Cc1cc(C)c(S(=O)(=O)N(Cc2ccc(-c3cc(F)c(CO)c(S(=O)(=O)CC(=O)O)c3)cc2)Cc2ccc(C(F)(F)F)o2)c(C)c1` [Example 9, 2-((5-Fluoro-4-(hydroxymethyl)-4′-(((2,4,6-trimethyl-N-((5-(trifluoromethyl)furan-2-yl)methyl)phenyl)sulfonamido)methyl)-[1,1′-biphenyl]-3-yl)sulfonyl)acetic acid]: the half-maximal effective concentration (EC50) lay in the range of 1000 to 10000 nM in test [1] (setting [2]), 100 to 1000 nM at LXRα full length (FL) and 100 to 1000 nM on LXRβ full length (FL). Besides, in test [1], the “behavior in FRET assay” value is given as “ia”.

For the compound `Cc1ccc2cccnc2c1S(=O)(=O)N(Cc1ccc(-c2cccc(C(C)(C)C(=O)NS(C)(=O)=O)c2)cc1)Cc1ccc(C(F)(F)F)o1` [Example 29, 2-Methyl-2-(4′-(((7-methyl-N-((5-(trifluoromethyl)furan-2-yl)methyl)quinoline)-8-sulfon-amido)methyl)-[1,1′-biphenyl]-3-yl)-N-(methylsulfonyl)propanamide], in test [1] (setting [2]), the “FRETβ activity range (EC50)” value is “inactive”. In addition, the EC50 on LXRα full length (FL) and at LXRβ full length (FL) was 100 to 1000 nM each time.

On to `COc1ccc(S(=O)(=O)N(Cc2ccc(-c3cccc(S(=O)(=O)CC(=O)O)c3)cc2)Cc2ccc(C(F)(F)F)o2)c2c1CCCC2` [10/10], for which the results for the EC50 (in test [1] (setting [2]); on LXRα full length (FL); on LXRβ full length (FL)) were 1000 to 10000 nM, 100 to 1000 nM and 100 to 1000 nM, respectively. Moreover, in test [1], the “behavior in FRET assay” value is “ia”.

On to `Cc1ccc2cccnc2c1S(=O)(=O)N(Cc1ccc(-c2cccc(S(=O)(=O)CC(=O)O)c2)cc1)Cc1ccc(C(F)(F)F)o1` [10/11], for which the results for the EC50 (in test [1] (setting [2]); at LXRα full length (FL); at LXRβ full length (FL)) were 1000 to 10000 nM, 1000 to 10000 nM and 100 to 1000 nM, respectively. In addition, the “behavior in FRET assay” value in test [1] was “ag”.

Turning to `O=C(O)CS(=O)(=O)c1cccc(-c2ccc(CN(Cc3ccc(C(F)(F)F)o3)S(=O)(=O)c3c(Cl)cccc3Cl)cc2)c1` [Example 10/1], the EC50 was 1000 to 10000 nM in test [1] (setting [2]) and 100 to 1000 nM at LXRβ full length (FL). Moreover, the “behavior in FRET assay” value in test [1] is “ag”. For the same compound, the “M2H Gal4α FL activity range (EC50)” value at LXRα full length (FL) was “inactive”.

On to `Cc1cc(C)c(S(=O)(=O)N(Cc2ccc(-c3cccc(S(=O)(=O)CC(=O)O)c3)cc2)Cc2ccc(C(F)F)o2)c(C)c1` [10/13], for which the EC50 in test [1] (setting [2]) is 1000 to 10000 nM; at LXRα full length (FL), 1000 to 10000 nM; on LXRβ full length (FL), 100 to 1000 nM. The “behavior in FRET assay” value in test [1] was “ia”.

Take `Cc1ccc2ccccc2c1S(=O)(=O)N(Cc1ccc(-c2cccc(S(=O)(=O)CC(=O)O)c2)cc1)Cc1cc(C(F)(F)F)co1` [10/16]: the EC50 in test [1] (setting [2]) was more than 10000 nM; at LXRα full length (FL) it was 1000 to 10000 nM; on LXRβ full length (FL) it was 100 to 1000 nM. Also, the “behavior in FRET assay” value in test [1] was “ia”.

For the compound `Cc1cc(C)c(S(=O)(=O)N(Cc2ccc(-c3cccc(S(=O)(=O)CC(=O)O)c3)cc2)Cc2ccc(C)o2)c(C)c1` [5/5], the figures for the EC50 (in test [1] (setting [2]); on LXRα full length (FL); at LXRβ full length (FL)) were more than 10000 nM, 1000 to 10000 nM and 100 to 1000 nM, respectively. For the same compound, in test [1], the “behavior in FRET assay” value is on record as “ia”.
